Results on ten compounds are retold here after ChEMBL document CHEMBL5465560, “Selectivity Literature for EUbOPEN Chemogenomic Library” (2024).

The target in test [1] is T1, Alpha-1A adrenergic receptor (Homo sapiens) (UniProt P35348).
T1 sequence (whole entry): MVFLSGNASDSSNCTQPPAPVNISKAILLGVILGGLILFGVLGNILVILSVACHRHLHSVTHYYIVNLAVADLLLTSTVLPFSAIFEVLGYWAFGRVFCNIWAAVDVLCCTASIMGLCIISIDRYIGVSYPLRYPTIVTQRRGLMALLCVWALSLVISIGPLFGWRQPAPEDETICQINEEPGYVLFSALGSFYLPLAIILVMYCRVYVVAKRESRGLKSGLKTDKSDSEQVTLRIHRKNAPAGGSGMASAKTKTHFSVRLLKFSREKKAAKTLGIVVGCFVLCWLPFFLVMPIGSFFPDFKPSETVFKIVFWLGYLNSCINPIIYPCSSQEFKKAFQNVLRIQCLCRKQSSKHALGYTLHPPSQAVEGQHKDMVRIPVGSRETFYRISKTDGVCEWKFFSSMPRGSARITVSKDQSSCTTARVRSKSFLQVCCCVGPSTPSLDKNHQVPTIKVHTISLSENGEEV
Nature of the test: Selectivity interaction (Panel of non-epigenetic targets (kinases, GPCRs, ion channels, and transporters, Eurofins) ) EUB0000271b ADRA1A. The conditions noted are these: at 1 µM.

Test [2] has as its target Ribosomal protein S6 kinase alpha-2 (Homo sapiens) (UniProt Q15349). The conditions noted are these: at 10 µM.
Test [3] concerns the target T2, Dual specificity mitogen-activated protein kinase kinase 5 (Homo sapiens) (UniProt Q13163).
T2 sequence (whole entry): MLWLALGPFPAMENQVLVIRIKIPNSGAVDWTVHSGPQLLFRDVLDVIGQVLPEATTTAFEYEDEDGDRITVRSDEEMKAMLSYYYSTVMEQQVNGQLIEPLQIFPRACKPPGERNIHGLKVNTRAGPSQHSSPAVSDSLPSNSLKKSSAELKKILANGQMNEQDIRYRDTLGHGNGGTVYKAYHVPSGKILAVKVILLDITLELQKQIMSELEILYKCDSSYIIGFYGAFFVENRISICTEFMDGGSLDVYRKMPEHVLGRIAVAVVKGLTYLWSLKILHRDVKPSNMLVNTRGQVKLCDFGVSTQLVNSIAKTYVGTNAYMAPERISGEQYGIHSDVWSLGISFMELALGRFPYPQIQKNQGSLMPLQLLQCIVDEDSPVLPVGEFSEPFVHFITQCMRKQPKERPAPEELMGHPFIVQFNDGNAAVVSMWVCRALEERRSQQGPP
Description: Selectivity interaction (KinomeScan (DiscoverX)) EUB0000666a MAP2K5. The conditions noted are these: at 10 µM.

The target of the next test is Aurora kinase B (Homo sapiens, UniProt Q96GD4). Description: Selectivity interaction (Kinase panel (DSF assay)) EUB0001558a AURKB.
The target of test [4] is Myosin light chain kinase, smooth muscle (Homo sapiens, UniProt Q15746). Description: Selectivity interaction (KinomeScan (DiscoverX)) EUB0000655a MYLK. The conditions noted are these: at 10 µM.
Sequence of Myosin light chain kinase, smooth muscle (Q15746 whole entry): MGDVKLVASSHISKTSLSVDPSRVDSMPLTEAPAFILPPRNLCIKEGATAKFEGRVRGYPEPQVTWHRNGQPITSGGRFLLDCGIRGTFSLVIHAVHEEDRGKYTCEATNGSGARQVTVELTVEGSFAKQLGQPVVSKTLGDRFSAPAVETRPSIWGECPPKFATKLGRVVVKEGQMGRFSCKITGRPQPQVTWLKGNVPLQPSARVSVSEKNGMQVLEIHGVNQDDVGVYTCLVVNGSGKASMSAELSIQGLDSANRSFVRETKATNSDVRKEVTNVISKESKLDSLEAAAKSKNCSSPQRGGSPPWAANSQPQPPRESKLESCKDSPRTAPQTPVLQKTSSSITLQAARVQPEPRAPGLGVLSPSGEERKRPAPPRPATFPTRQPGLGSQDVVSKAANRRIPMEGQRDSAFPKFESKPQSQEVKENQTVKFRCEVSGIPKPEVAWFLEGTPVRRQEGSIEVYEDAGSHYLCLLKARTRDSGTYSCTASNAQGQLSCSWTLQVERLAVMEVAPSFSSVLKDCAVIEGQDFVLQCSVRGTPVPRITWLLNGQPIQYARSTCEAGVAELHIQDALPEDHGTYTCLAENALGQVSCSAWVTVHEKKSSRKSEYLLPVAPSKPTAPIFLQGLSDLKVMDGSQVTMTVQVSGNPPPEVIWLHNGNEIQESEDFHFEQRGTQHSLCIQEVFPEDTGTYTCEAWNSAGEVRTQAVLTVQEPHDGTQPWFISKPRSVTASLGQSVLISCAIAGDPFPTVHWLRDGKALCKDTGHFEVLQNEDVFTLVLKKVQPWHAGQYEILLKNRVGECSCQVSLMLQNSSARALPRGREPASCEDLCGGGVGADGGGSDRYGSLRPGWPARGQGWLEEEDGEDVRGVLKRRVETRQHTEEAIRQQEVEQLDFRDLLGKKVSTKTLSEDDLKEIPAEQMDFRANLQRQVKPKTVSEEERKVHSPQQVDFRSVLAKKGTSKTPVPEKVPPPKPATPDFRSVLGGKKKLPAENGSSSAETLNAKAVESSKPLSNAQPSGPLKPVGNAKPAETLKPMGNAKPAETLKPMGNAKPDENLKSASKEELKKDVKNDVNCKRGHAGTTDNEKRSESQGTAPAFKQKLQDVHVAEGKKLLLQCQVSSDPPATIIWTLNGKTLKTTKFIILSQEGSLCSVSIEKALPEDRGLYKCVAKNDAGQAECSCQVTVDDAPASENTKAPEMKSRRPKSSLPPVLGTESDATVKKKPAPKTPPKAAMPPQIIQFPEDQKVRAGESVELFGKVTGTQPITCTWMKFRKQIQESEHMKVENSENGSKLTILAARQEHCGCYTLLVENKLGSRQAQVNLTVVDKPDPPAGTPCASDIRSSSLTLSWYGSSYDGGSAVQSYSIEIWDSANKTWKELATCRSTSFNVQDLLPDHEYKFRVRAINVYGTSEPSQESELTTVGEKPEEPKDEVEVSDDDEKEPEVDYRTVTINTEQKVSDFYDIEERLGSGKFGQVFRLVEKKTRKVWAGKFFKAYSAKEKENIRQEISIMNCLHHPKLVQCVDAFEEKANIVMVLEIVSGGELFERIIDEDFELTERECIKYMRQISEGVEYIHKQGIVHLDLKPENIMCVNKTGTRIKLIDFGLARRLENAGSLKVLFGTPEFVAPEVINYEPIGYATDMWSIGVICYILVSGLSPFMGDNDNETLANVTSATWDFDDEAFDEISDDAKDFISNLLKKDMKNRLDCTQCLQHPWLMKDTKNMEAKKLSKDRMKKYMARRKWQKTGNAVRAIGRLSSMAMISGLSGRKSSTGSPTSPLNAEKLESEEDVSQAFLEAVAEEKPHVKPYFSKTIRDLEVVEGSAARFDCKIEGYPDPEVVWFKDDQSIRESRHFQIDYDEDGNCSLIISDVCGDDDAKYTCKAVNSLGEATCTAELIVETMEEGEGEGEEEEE
Test [5] addresses RAC-beta serine/threonine-protein kinase (Homo sapiens) (UniProt P31751). Nature of the test: Selectivity interaction (KinomeScan (DiscoverX)) EUB0001079a AKT2. The conditions noted are these: at 1 µM.
Test [6] deals with Casein kinase I isoform gamma-1 (Homo sapiens) (UniProt Q9HCP0). Nature of the test: Selectivity interaction (KinomeScan (DiscoverX)) EUB0001049a CSNK1G1. The conditions noted are these: at 1 µM.
Sequence of Casein kinase I isoform gamma-1 (Homo sapiens) (Q9HCP0 whole entry, looked up, canonical isoform): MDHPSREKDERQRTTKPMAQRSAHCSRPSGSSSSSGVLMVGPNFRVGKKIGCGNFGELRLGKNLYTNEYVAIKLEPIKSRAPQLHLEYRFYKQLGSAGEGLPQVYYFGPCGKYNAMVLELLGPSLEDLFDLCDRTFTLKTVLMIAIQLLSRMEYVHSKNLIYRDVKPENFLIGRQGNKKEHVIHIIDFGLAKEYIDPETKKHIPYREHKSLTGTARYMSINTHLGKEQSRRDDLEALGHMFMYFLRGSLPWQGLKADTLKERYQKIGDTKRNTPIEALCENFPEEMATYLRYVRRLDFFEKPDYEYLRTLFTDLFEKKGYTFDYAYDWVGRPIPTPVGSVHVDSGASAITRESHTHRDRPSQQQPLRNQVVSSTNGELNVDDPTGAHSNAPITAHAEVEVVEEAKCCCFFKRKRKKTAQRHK
Test [7] deals with T3, Inhibitor of nuclear factor kappa-B kinase subunit alpha (Homo sapiens) (UniProt O15111).
T3 sequence (whole entry): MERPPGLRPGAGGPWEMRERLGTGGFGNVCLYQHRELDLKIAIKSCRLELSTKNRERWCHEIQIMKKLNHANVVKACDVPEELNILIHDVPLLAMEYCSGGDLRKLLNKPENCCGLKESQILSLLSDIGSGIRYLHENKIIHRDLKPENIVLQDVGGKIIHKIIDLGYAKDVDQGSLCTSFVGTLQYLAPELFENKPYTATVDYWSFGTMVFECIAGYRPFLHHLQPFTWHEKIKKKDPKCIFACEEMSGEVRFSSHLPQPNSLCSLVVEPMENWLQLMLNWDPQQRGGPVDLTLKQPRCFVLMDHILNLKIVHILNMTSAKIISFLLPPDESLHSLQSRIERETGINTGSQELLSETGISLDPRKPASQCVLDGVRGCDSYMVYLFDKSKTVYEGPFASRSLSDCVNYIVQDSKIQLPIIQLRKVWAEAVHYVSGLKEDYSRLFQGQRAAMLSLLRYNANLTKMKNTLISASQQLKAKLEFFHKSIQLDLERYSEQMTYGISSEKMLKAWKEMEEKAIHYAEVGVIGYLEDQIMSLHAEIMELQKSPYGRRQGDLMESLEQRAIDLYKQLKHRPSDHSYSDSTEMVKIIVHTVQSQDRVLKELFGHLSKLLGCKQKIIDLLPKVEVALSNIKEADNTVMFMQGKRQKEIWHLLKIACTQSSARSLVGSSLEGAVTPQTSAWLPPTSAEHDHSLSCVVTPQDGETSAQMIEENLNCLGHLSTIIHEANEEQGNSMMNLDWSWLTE
Description: Selectivity interaction (ProQinase) EUB0000171b CHUK.

The target in test [8] is T4, Myotonin-protein kinase (Homo sapiens) (UniProt Q09013).
T4 sequence (whole entry): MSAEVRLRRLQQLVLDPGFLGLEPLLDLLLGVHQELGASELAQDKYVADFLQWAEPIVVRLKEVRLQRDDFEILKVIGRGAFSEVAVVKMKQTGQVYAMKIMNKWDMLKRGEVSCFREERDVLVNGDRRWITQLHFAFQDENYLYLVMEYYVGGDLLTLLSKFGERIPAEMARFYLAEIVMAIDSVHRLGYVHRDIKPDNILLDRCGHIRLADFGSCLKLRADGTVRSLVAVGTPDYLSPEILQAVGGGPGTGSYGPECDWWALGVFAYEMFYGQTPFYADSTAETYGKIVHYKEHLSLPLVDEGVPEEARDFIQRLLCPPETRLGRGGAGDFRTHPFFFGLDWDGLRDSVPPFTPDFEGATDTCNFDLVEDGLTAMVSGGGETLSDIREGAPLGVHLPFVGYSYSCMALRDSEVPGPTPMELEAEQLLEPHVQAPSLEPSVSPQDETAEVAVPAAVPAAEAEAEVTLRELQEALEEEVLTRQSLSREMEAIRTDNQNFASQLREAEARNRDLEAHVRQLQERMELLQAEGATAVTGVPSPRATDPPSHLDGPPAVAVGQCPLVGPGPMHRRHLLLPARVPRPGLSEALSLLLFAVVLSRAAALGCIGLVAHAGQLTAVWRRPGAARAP
Nature of the test: Selectivity interaction (ProQinase) EUB0000171b DMPK.

Test [9] has as its target Calcium/calmodulin-dependent protein kinase type II subunit gamma (Homo sapiens) (UniProt Q13555). Description: Selectivity interaction (KinomeScan (DiscoverX)) EUB0000618a CAMK2G. The conditions noted are these: at 10 µM.
Test [10] deals with Serine/threonine-protein kinase PAK 6 (Homo sapiens) (UniProt Q9NQU5). Description: Selectivity interaction (Upstate Kinase Profiler service (Millipore)) EUB0000056c PAK6. The conditions noted are these: at 1 µM.
Sequence of Serine/threonine-protein kinase PAK 6 (Homo sapiens) (Q9NQU5 whole entry, looked up): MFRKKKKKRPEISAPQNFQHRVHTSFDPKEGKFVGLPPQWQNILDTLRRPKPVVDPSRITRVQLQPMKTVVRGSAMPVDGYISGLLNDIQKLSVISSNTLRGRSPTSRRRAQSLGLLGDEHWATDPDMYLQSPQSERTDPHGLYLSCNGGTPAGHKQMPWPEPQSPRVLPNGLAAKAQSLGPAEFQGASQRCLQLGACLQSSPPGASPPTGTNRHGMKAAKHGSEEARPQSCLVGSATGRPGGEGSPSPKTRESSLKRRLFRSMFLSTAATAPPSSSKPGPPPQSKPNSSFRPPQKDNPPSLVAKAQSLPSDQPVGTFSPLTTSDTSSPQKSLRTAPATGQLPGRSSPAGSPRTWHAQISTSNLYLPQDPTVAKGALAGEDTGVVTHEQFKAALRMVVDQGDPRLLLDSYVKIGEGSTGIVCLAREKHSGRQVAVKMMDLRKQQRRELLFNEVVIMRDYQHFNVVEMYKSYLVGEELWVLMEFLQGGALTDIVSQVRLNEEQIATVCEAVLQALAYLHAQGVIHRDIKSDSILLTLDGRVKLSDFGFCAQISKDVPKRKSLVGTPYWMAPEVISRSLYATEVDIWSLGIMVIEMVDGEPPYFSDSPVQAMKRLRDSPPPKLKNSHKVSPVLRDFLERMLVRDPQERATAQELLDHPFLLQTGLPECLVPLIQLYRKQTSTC

Sequence of RAC-beta serine/threonine-protein kinase (Homo sapiens) (P31751 whole entry, canonical isoform): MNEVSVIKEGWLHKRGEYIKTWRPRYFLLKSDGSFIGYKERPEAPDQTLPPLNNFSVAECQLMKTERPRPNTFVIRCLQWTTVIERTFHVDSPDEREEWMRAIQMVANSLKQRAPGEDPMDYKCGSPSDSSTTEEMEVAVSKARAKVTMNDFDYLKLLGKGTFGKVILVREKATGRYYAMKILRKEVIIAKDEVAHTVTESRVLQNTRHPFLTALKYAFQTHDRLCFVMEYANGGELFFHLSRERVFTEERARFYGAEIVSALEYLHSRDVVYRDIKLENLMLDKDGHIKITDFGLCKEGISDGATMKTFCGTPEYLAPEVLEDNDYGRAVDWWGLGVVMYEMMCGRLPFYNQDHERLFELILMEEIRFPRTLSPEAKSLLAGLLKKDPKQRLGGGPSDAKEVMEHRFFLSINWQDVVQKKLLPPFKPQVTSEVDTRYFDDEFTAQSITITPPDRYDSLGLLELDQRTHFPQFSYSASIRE
Sequence of Ribosomal protein S6 kinase alpha-2 (Homo sapiens) (Q15349 whole entry): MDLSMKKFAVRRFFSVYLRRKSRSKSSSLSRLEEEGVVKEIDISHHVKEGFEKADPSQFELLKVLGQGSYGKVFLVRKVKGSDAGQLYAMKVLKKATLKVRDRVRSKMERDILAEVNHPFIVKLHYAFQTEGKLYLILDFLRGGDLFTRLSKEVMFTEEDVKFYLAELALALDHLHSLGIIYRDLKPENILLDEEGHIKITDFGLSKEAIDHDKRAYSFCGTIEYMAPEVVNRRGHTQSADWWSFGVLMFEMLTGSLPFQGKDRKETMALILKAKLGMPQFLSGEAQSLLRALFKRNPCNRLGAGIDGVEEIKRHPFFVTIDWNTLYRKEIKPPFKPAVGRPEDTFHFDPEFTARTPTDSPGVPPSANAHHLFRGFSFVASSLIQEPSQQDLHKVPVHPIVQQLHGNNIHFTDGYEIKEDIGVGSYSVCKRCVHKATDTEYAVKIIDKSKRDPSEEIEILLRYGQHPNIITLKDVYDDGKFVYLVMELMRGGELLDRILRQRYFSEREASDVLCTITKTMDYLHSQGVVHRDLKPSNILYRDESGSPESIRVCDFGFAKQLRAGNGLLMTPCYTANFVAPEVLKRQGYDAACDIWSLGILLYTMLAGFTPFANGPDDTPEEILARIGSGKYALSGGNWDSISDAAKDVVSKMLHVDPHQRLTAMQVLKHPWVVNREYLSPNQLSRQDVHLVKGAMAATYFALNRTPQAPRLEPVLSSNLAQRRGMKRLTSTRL
Sequence of Calcium/calmodulin-dependent protein kinase type II subunit gamma (Homo sapiens) (Q13555 whole entry): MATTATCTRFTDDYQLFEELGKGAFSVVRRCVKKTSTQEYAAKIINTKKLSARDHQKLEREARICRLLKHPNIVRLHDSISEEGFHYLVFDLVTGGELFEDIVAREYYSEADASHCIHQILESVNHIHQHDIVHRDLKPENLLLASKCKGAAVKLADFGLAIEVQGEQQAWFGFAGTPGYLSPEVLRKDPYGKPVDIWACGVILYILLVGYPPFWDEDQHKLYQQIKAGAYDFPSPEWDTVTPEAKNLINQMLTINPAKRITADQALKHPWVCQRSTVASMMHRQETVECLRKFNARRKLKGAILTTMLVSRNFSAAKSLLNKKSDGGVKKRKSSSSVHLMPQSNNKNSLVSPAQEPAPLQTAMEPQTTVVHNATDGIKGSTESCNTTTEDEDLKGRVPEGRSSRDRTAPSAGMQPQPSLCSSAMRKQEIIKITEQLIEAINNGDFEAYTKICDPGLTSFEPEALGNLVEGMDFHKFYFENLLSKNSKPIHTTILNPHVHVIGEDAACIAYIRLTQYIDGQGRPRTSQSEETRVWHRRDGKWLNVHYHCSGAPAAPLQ

Turning to `Cc1cc(C)cc([C@@H]2c3cc(C)ccc3NC(=O)CN2C(=O)c2ccc(Br)s2)c1`, the % of inhibition in test [1] is 4%. `Cc1cc([C@@H](C)Nc2ccccc2C(=O)O)c2nc(N3CCOCC3)cc(=O)n2c1` [AZD-6482] gave a % of control in test [2] of 97%. The compound `O=C(NOC[C@H](O)CO)c1ccc(F)c(F)c1Nc1ccc(I)cc1F` came in with a % of control in [3] of 86%.

`CC(C)(O)[C@H](F)CN1Cc2cc(NC(=O)c3cnn4cccnc34)c(N3CCOCC3)cc2C1=O`: at Aurora kinase B, the dTM turned out to be 0.5 K. Regarding `CN(C)CCOc1ccc(-c2nc(-c3ccncc3)c(-c3ccc4c(c3)CC/C4=N\O)[nH]2)cc1`, the % of control in test [4] came out at 51%. In test [5], `Nc1cnc(N2CCc3cc(S(=O)(=O)Nc4c(F)cc(Cl)cc4F)cc(N4CCCC4=O)c32)nc1` [TP-020n] displayed a % of control of 100%. `COc1cc(Nc2nc(C)cc(-c3cnn4nc(OC)ccc34)n2)cc(C(F)(F)F)c1` yielded a % of control in test [6] of 100%.

Regarding `C=CC(=O)Nc1cccc(C(=O)Nc2ccc(Nc3cc(-c4[nH]c(SC)nc4C)ccn3)cc2)c1`, the % of control came out at 78% in [7] (at 1 µM), 57% in test [7] (at 5 µM), 97% in [8] (at 1 µM) and 92% in test [8] (at 5 µM). Turning to `O[C@H]1CC[C@H](Nc2ncc3nc(Nc4c(F)cc(F)cc4F)n([C@H]4CCOC4)c3n2)CC1`, in [9], the % of control stood at 100%. Regarding `Cc1ccc(-c2ccc3c(ccc4sc5c(c43)NC[C@@H](C)NC5=O)n2)cn1`, the % of inhibition in [10] came out at 4%.
